Values of other authors in patent publication US20140093564A1, “PHARMACEUTICAL COMPOSITIONS OF COMBINATIONS OF DIPEPTIDYL PEPTIDASE-4 INHIBITORS WITH SIMVASTATIN” (MERCK SHARP & DOHME LTD., priority 2011, published 2014).

Details: oral administration, human Type 2 diabetics

N[C@@H](CC(=O)N1CCn2c(nnc2C(F)(F)F)C1)Cc1cc(F)c(F)cc1F [sitagliptin, (2R)-4-oxo-4-[3-(trifluoromethyl)-5,6-dihydro[1,2,4]triazolo[4,3-α]pyrazin-7(8H)-yl]-1-(2,4,5-trifluorophenyl)butan-2-amine]
HbA1c levels: significantly reduced | fasting glucose: reduce | postprandial glucose excursion: reduce

N#C[C@@H]1CCCN1C(=O)CNC12CC3CC(CC(O)(C3)C1)C2 [vildagliptin, (S)-1-[(3-hydroxy-1-adamantyl)amino]acetyl-2-cyano-pyrrolidine]
HbA1c levels: significantly reduced | fasting glucose: reduce | postprandial glucose excursion: reduce
